# In patent EP1072673A2, “Perfume compositions” (THE PROCTER & GAMBLE COMPANY, priority 1999, dated 2001):
# Like-named read-outs stand apart in the source and are kept apart here.
# Experiments:
# [1] = Bleach stability index (BSI) test: % AvO loss of perfumed bleach product in accelerated aging, by iodometric titration; conditions: perfume ingredient at 0.2% via AE3S in PAP finished product, pH 3.8; 2 weeks at 40°C; BSI of at least 80% = not more than 20% AvO loss
# Description: (§1) For this test, the pure perfume chemicals to be tested were diluted at 0.2% via a solubiliser, namely C10-C18 sodium alkyl sulfate condensed with an average of three moles of ethylene oxide (AE3S), then incorporated in a finished product and then subjected to the accelerated aging test. The accelerated aging test is set up as follows: 15 to 20g of each of the finished product incorporating the perfume ingredient was taken and placed in an oven for 2 weeks at 40°C. The aged samples were compared versus freshly made perfumed product (The reference) by measuring the AvO before storage from the reference and after storage from the aged product and expressing the difference in AvO as % loss.
# (§2) The loss of available oxygen (AvO) of a bleach-containing composition over time can be measured with the iodometric titration method in which the bleach is reduced by excess potassium iodide and the iodine formed is determined by titration with sodium thiosulphate.
# [2] = pH 3.8
# Description: as §1, §2
bleach stability index (BSI) [1],Molecule,bleach stability index (BSI) [2]
at least 80%,CC(C)CCCC1=CCC(C)(C=O)CC1 (stereo not shown) [1-Methyl-4-(4-methylpentyl)-3-cyclohexenecarbaldehyde],
at least 80%,"CC=CC(=O)C1=C(C)CCCC1(C)C [2-Buten-1-one, 1-(2,6,6-trimethyl-1-cyclohexen-1-yl)-]",
at least 80%,OCC=Cc1ccccc1 [3-Phenyl-2-propen-1-ol],
at least 80%,"CC(C)=CCCC(C)CC=O (stereo not shown) [Citronellal, 3,7-Dimethyl-6-octen-1-al]",
at least 80%,"C=CC(C)CCCC(C)(C)O (stereo not shown) [Dihydro myrcenol, 2,6-dimethyl-7-octen-2-ol]",
at least 80%,"CCOC(=O)C1=C(C)C=CCC1(C)C [Ethyl safranate, ethyl 2,6,6-trimethyl-1,3-cyclohexdiene-1-carboxylate]",
at least 80%,"CC=CC(=O)OC(C)CC(C)C (stereo not shown) [Frutinat.exp, 4-methyl-pentan-2-ol 2-butenoate]",
at least 80%,"CC(=O)OCC=C(C)C [Prenyl acetate, 2-methylbuten-2-ol-4-acetate]",
at least 80%,"CC1=CCC(CCC(C)C(C)O)C1(C)C (stereo not shown) [Sandalore, 5-(2,2,3-Trimethyl-3-cyclopentenyl)-3-methylpentan-2-ol]",
at least 80%,C=CCOC(=O)COCCC(C)C [allyl amyl glycolate],
at least 80%,C=CC(O)CCCCC (stereo not shown) [amyl vinyl carbinol],
at least 80%,CC(=O)OCCC(C)CCC=C(C)C (stereo not shown) [citronellyl acetate],
at least 80%,"O=c1ccc2ccccc2o1 [coumarin, 1,2-benzopyrone]",
at least 80%,CCCCCCC(C=O)=Cc1ccccc1 [hexyl cinnamic aldehyde],
at least 80%,CC(=O)/C=C/C1=C(C)CCCC1(C)C [ionone beta],
at least 80%,CC(C)(O)CCCC1=CCC(C=O)CC1 (stereo not shown) [lyral],
at least 80%,CC(C)=CCOC(=O)c1ccccc1O [prenyl salicylate],
at least 80%,"C=CCCCCCCCCO [rosalva, 9-Decen-1-ol]",
at least 80%,CCC/C=C/C=O [trans-2-hexenal],
at least 80%,"CCC=C(C)C(O)CCCCC (stereo not shown) [undecavertol, 4-Methyl-3-decen-5-ol]",

# More lines, now with the values behind:
Molecule,bleach stability index (BSI) [1],bleach stability index (BSI) [2]
"2,5,10-Trimethyl-2,5,9-cyclododecatrien-1-yl methyl ketone & isomers [trimofix o]",at least 80%,
C=CC(C)(C#N)Cc1ccccc1 (stereo not shown) [2-Benzyl-2-methyl-3-butenenitril],at least 80%,
CC(CO)CC(C)c1ccccc1 (stereo not shown) [2-Methyl-4-phenyl-1-pentanol],at least 80%,
CC=CC(=O)OC1CCCC1C1CCCC1 (stereo not shown) [2-cyclopentyl-cyclopentyl 2-butenoate],at least 80%,
"CC(C)=CCCC(C)=CC#N [3,7-dimethyl-2,6-octadienenitrile]",at least 80%,
"C=CCCCCCCCC=CCC#N [3,12-tridecadiene nitrile]",at least 80%,
"CC=C1CC2CC1C1CCCOC21 (stereo not shown) [5,8-Methano-2H-1-benzopyran, 6-ethylideneoctahydro-]",at least 80%,
"CCCCCCC=CC(=O)OC [Beauvertate, methyl-2-nonenoate]",at least 80%,
"CC1=CC(C)C(CO)CC1 (stereo not shown) [Floralol, dimethyl cyclohexene methanol]",at least 80%,
"CCC(=O)OC1CC2CC1C1CC=CC21 (stereo not shown) [Frutene, tricyclo decenyl propionate]",,at least 80%
"CC=CC(=O)OCCCCCC [Hexyl crotonate, hexyl 2-butenoate]",at least 80%,
"C=CC(C)(O)CCC=C(C)C (stereo not shown) [Linalool, 3,7-Dimethyl-1,6-octadien-3-ol]",at least 80%,
"C=CC(=C)CCCC(C)(C)OC(C)=O [Myrcenyl acetate crude, 3-methylene-7-methyl-1-octen-7-yl acetate]",at least 80%,
"CCC(=CCC1CC=C(C)C1(C)C)CO (stereo not shown) [Sanjinol, 2-Ethyl-4-(2,2,3-trimethyl-3-cyclopenten-1-yl)-2-buten-1-ol]",at least 80%,
"CC=CC(=O)C1C(C)=CCCC1(C)C (stereo not drawn) [alpha-damascone, 2-Buten-1-one, 1-(2,6,6-trimethyl-2-cyclohexen-1-yl)-]",at least 80%,
O=C1CCCC=CCCCCCCCCCC1 [ambretone],at least 80%,
C=C(C=O)C(C)CCC=C(C)C (stereo not shown) [bergamal],at least 80%,
CC1=CCC(CC#N)C1(C)C (stereo not shown) [cantryl],at least 80%,
OC/C=C/c1ccccc1 [cinnamic alcohol],at least 80%,
"CC(C)=CCCC(C)CCO (stereo not shown) [citronellol, 3,7-dimethyl-6-octen-1-ol]",at least 80%,
"C=CCOC(=O)COCCCCC [glycolic acid, 2-pentyloxy:allyl ester]",,at least 80%
CC(=O)/C=C/C1C(C)=CCCC1(C)C (stereo not drawn) [ionone alpha],at least 80%,
C/C=C(/C)C(=O)OCC(C)C [isobutyl angelate],at least 80%,
"CC(C)C=CC(=O)CC(C)C [isotagetone 50, 2,7-Dimethyloct-5-en-4-one]",at least 80%,
"COC(=O)c1ccccc1N=CC1CCC(C)=CC1C (stereo not shown) [ligantraal, Methyl 2-((-1-(2,4-dimethyl-3-cyclohexenyl)methylidene)amino)-1-benzenecarboxylate]",at least 80%,
C=CC(C)(CCC=C(C)C)OC(C)=O (stereo not shown) [linalyl acetate],at least 80%,
CC1(C)CCCC2=C1CC(C=O)CC2 (stereo not shown) [melafleur],at least 80%,
"CCCC(C)C=Nc1ccccc1C(=O)OC (stereo not shown) [mevantraal (q), Methyl 2-((-2-methylpentylidene)amino)-1-benzenecarboxylate]",at least 80%,
CCC/C=C/CO [trans-2-hexenol],at least 80%,
